For this test, the target named is NLRP3 (Homo sapiens, UniProt Q96P20). In words: THP-1 cells pyroptosis assay. Format: cell-based. Details: Seed THP-1 cells (25,000 cells/well) containing 1.0 μg/ml LPS; host or cells: THP-1. The following applies: LPS 1.0 μg/ml, nigericin 5 μM, resazurin readout, 10 μM top dose (Example 2: top dose of 30 μM). The gist of the method: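 THP-1 cells (25,000/well) primed with 1 μg/ml LPS in serum-free RPMI, treated with compound (8-point dilution, 10 μM top unless stated; 0.1% DMSO) 3 h at 37°C, then nigericin 5 μM 1 h. Viability read by resazurin (100 μM, 1-2 h) fluorescence; IC50 from 4-parameter fit.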
Sequence of NLRP3 (Q96P20 whole entry): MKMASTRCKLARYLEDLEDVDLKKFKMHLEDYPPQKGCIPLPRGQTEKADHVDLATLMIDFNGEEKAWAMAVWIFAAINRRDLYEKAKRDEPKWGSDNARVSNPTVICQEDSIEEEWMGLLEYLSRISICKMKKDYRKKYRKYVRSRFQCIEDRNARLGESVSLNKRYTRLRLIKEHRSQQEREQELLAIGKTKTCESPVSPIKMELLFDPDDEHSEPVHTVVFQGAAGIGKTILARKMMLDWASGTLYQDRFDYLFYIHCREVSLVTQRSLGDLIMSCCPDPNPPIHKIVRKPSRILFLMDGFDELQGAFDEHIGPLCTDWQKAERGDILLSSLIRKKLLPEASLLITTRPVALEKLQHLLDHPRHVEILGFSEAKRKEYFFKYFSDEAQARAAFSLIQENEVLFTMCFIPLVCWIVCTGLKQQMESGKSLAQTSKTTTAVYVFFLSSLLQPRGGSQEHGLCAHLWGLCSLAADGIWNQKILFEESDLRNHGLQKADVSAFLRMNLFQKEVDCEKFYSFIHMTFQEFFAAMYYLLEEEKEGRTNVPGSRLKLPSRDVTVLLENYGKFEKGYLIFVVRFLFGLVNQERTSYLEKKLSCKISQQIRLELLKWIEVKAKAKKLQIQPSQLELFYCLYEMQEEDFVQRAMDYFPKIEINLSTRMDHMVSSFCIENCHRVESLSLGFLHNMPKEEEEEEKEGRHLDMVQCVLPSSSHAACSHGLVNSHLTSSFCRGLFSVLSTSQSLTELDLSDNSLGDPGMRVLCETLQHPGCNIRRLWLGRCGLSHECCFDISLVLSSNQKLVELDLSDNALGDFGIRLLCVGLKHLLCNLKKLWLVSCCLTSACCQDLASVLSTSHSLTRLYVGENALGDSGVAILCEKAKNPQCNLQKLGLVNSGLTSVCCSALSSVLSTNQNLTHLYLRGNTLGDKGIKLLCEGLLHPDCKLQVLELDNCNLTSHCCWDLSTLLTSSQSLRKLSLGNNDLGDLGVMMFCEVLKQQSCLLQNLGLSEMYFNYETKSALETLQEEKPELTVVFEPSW
For orientation: The colour change of resazurin is a common sign of viable cells or microbes.

SMILES strings stand for the structures.

One may read the IC50 as the concentration that gives 50% inhibition. The low end stands for higher potency, the high end for lower potency. Regarding `CC(C)c1cc(F)cc(C(C)C)c1Cc1nnc(S(=O)(=O)Cc2ccc(F)cc2)[nH]1` [Example 28, 3-(4-fluoro-2,6-diisopropylbenzyl)-5-((4-fluorobenzyl)sulfonyl)-4H-1,2,4-triazole], the IC50 was ≤ 10 µM.
For the molecule `COc1cc(-c2c(C)cccc2Nc2nnc(S(=O)(=O)N3CCC(N(C)C)CC3)[nH]2)ccn1` [Example 208, 1-((5-((2-(2-methoxypyridin-4-yl)-3-methylphenyl)amino)-4H-1,2,4-triazol-3-yl)sulfonyl)-N,N-dimethylpiperidin-4-amine], the IC50 was ≤ 10 µM.
The result for `O=S(=O)(c1nnc(Nc2c3c(cc4c2CCC4)CCC3)[nH]1)N1CCC2(CCCN2CC(F)(F)F)CC1` [Example 267, N-(1,2,3,5,6,7-hexahydro-s-indacen-4-yl)-5-((1-(2,2,2-trifluoroethyl)-1,8-diazaspiro[4.5]decan-8-yl)sulfonyl)-4H-1,2,4-triazol-3-amine] reads ≤ 10 µM; that for `CC(=O)NCCNS(=O)(=O)c1nnc(Nc2c3c(cc4c2CCC4)CCC3)[nH]1` [Example 115, N-(2-(5-((1,2,3,5,6,7-hexahydro-s-indacen-4-yl)amino)-4H-1,2,4-triazole-3-sulfonamido)ethyl)acetamide], ≤ 5 µM.
With `CN(C)CCN(C)CCCS(=O)(=O)c1nnc(Nc2c3c(cc4c2CCC4)CCC3)[nH]1` [Example 52, N^1-(3-((5-((1,2,3,5,6,7-hexahydro-s-indacen-4-yl)amino)-4H-1,2,4-triazol-3-yl)sulfonyl)propyl)-N^1,N^2,N^2-trimethylethane-1,2-diamine] the figure was ≤ 5 µM.
With `COC1(c2cc(S(=O)(=O)c3nnc(Nc4c5c(cc6c4CCC6)CCC5)[nH]3)nn2C(C)C)COC1` [Example 14, N-(1,2,3,5,6,7-hexahydro-s-indacen-4-yl)-5-((1-isopropyl-5-(3-methoxyoxetan-3-yl)-1H-pyrazol-3-yl)sulfonyl)-4H-1,2,4-triazol-3-amine] the figure was ≤ 5 µM.
In the case of `COc1cc(-c2c(C)cc3c(c2Nc2nnc(S(C)(=O)=O)[nH]2)CCC3)ccn1` [Example 312, N-(5-(2-methoxypyridin-4-yl)-6-methyl-2,3-dihydro-1H-inden-4-yl)-5-(methylsulfonyl)-4H-1,2,4-triazol-3-amine], the half-inhibitory concentration (IC50) was ≤ 5 µM.
Consider `COC(C)(C)C1CCN(S(=O)(=O)c2nnc(Nc3c4c(cc5c3CCC5)CCC4)[nH]2)C1` (stereo not shown) [Example 282, N-(1,2,3,5,6,7-hexahydro-s-indacen-4-yl)-5-((3-(2-methoxypropan-2-yl)pyrrolidin-1-yl)sulfonyl)-4H-1,2,4-triazol-3-amine], for which the IC50 is ≤ 5 µM.
Regarding `O=C1CCCN1CCNS(=O)(=O)c1nnc(Nc2c3c(cc4c2CCC4)CCC3)[nH]1` [Example 114, 5-((1,2,3,5,6,7-hexahydro-s-indacen-4-yl)amino)-N-(2-(2-oxopyrrolidin-1-yl)ethyl)-4H-1,2,4-triazole-3-sulfonamide], the half-maximal inhibitory concentration (IC50) is ≤ 5 µM.
The result for `CC(C)c1cc(F)cc(-c2cccnc2)c1Nc1nnc(S(=O)(=O)c2ccn(C(C)C)n2)[nH]1` [Example 39, N-(4-fluoro-2-isopropyl-6-(pyridin-3-yl)phenyl)-5-((1-isopropyl-1H-pyrazol-3-yl)sulfonyl)-4H-1,2,4-triazol-3-amine] reads ≤ 10 µM.
The result for `N#Cc1c2c(c(Nc3nnc(S(=O)(=O)c4ccccc4)[nH]3)c3c1CCC3)CCC2` [Example 323, 8-((5-(phenylsulfonyl)-4H-1,2,4-triazol-3-yl)amino)-1,2,3,5,6,7-hexahydro-5-indacene-4-carbonitrile] reads ≤ 5 µM.
Regarding `O=S(=O)(c1nnc(Nc2c3c(cc4c2CCC4)CCC3)[nH]1)N1CCCC2(CCOC2)C1` (stereo not shown) [Example 313, 5-(2-oxa-7-azaspiro[4.5]decan-7-ylsulfonyl)-N-(1,2,3,5,6,7-hexahydro-s-indacen-4-yl)-4H-1,2,4-triazol-3-amine], the half-maximal inhibitory concentration (IC50) is ≤ 5 µM.
With `O=S(=O)(c1ccccn1)c1nnc(Nc2c3c(cc4c2CCC4)CCC3)[nH]1` [Example 170, N-(1,2,3,5,6,7-hexahydro-s-indacen-4-yl)-5-(pyridin-2-ylsulfonyl)-4H-1,2,4-triazol-5-amine] the figure was ≤ 1 µM.

The values above are taken from patent publication US20210261512A1, “NOVEL COMPOUNDS” (INFLAZOME LIMITED, priority 2018, published 2021).
